Earlier results as cited in patent US11491120B2, “Pharmacological prophylactics against stress-induced affective disorders in females” (The Trustees of Columbia University in the City of New York, priority 2017, dated 2022).

Conditions: following ketamine infusion; cited from earlier work

## N[C@@]1(c2ccccc2Cl)CCC[C@@H](O)C1=O [(2R,6R;2S,6S)-HNK, (2R,6R;2S,6S)-hydroxynorketamine]
  Share of the original ketamine dose found as metabolite in the brain: 15%
